Results on six compounds are retold here after ChEMBL document CHEMBL1201862, “PubChem BioAssay data set” (2004).

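Cells were grown in 96-well plates and exposed to each compound for 48 hours at five concentrations; endpoints were interpolated linearly between bracketing concentrations, or set to the highest concentration if not reached. The concentration for 50% growth inhibition is given as GI50.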 Activity calls are given as the source filed them. Rule as the data show it: active = GI50 up to about 1.1 µM and inactive = higher.

Among the test systems are HT-29; DU-145; LOX IMVI; OVCAR-5; SK-OV-3; UACC-257; SN12C; KM12; MDA-MB-231; A549; SK-MEL-28; MDA-MB-435; T47D; CCRF-CEM; SF-539; U-251; A498; 786-0; RPMI-8226; SK-MEL-5.
What all share (test): NCI tumour cell line growth inhibition, 48 h

For the compound `Brc1ccccc1/C=N\C12CC3CC(CC(C3)C1)C2`, the GI50 was 38.4 µM (inactive) with HT-29; > 100 µM (inactive) in the assay with DU-145; 19.9 µM (inactive) in the assay on LOX IMVI; > 100 µM (inactive) in the assay on OVCAR-5; > 100 µM (inactive) in the assay on SK-OV-3; > 79.4 µM (inactive) with UACC-257. In addition, the GI50 with SN12C is > 63.1 µM (inactive); in the assay on KM12 it was > 100 µM (inactive); in the assay with MDA-MB-231, > 100 µM (inactive); with A549 it was > 100 µM (inactive); in the assay with SK-MEL-28, > 100 µM (inactive); in the assay on MDA-MB-435, 8.47 µM (inactive). The GI50 was > 100 µM (inactive) in the assay on T47D; 4.54 µM (inactive) in the assay with CCRF-CEM; 15.5 µM (inactive) in the assay on SF-539; 12.9 µM (inactive) in the assay on U-251; > 100 µM (inactive) with A498; > 52.8 µM (inactive) in the assay on 786-0. In addition, the GI50 in the assay with RPMI-8226 is 3.31 µM (inactive); with SK-MEL-5, 51.6 µM (inactive).

As to `CS(=O)(=O)CS(=O)(=O)OCCCl`, the GI50 was 427 µM (inactive) in the assay with HT-29; 199 µM (inactive) in the assay with DU-145; 37.8 µM (inactive) with LOX IMVI; 621 µM (inactive) in the assay on OVCAR-5; 167 µM (inactive) in the assay with SK-OV-3; 169 µM (inactive) with UACC-257. For the same compound, the GI50 with SN12C was 188 µM (inactive); in the assay on KM12 it was 339 µM (inactive); in the assay with MDA-MB-231 it was 296 µM (inactive); in the assay on A549 it was 220 µM (inactive); in the assay with SK-MEL-28 it was 490 µM (inactive); in the assay on MDA-MB-435 it was 991 µM (inactive). The GI50 was 218 µM (inactive) in the assay with T47D; 47 µM (inactive) in the assay with CCRF-CEM; 50.4 µM (inactive) in the assay on SF-539; 72.3 µM (inactive) in the assay with U-251; 527 µM (inactive) in the assay with A498; 61.2 µM (inactive) in the assay on 786-0. Further, the GI50 in the assay with RPMI-8226 was 198 µM (inactive); in the assay with SK-MEL-5 it was 211 µM (inactive).

For `CSC1=NC(=O)CCN1C1OCC(OC(C)=O)C(OC(C)=O)C1OC(C)=O` (stereo not given), the GI50 in the assay on HT-29 was 17.9 µM (inactive); in the assay on DU-145, 19.9 µM (inactive); in the assay with LOX IMVI, > 10 µM (inactive); with OVCAR-5, 19.6 µM (inactive); in the assay on SK-OV-3, 15.2 µM (inactive); in the assay on UACC-257, 18.4 µM (inactive). The GI50 with SN12C is 20.7 µM (inactive); in the assay with KM12, 21.5 µM (inactive); with MDA-MB-231, 12.4 µM (inactive); in the assay on A549, 18.6 µM (inactive); with SK-MEL-28 it was 16.1 µM (inactive); in the assay with MDA-MB-435, 17.9 µM (inactive). The GI50 was 16.8 µM (inactive) with T47D; 5.9 µM (inactive) in the assay with CCRF-CEM; 12.1 µM (inactive) in the assay with SF-539; 15.8 µM (inactive) in the assay on U-251; 15.6 µM (inactive) in the assay on A498; 16.3 µM (inactive) in the assay on 786-0. Also, the GI50 was 6.9 µM (inactive) in the assay on RPMI-8226 and 10.9 µM (inactive) in the assay on SK-MEL-5.

With `Clc1ccc(-c2ccc(-c3nnc(CCc4nnc(-c5ccc(-c6ccc(Cl)cc6)o5)o4)o3)o2)cc1`, the GI50 is > 100 µM (inactive) in the assay with HT-29; > 100 µM (inactive) in the assay with DU-145; > 100 µM (inactive) with LOX IMVI; > 100 µM (inactive) with OVCAR-5; > 45 µM (inactive) with SK-OV-3; > 100 µM (inactive) in the assay with UACC-257. The GI50 in the assay on SN12C is > 100 µM (inactive); with KM12 it was > 100 µM (inactive); in the assay on MDA-MB-231, 28.3 µM (inactive); in the assay with A549, > 100 µM (inactive); in the assay with SK-MEL-28, > 100 µM (inactive); in the assay with MDA-MB-435, > 100 µM (inactive). In addition, the GI50 in the assay with T47D is 75.7 µM (inactive); with CCRF-CEM, 2.89 µM (inactive); in the assay on SF-539, 27.3 µM (inactive); in the assay with U-251, 17.1 µM (inactive); in the assay on A498, 30.5 µM (inactive); with 786-0, > 43.3 µM (inactive). In addition, the GI50 is 34 µM (inactive) with RPMI-8226 and > 100 µM (inactive) with SK-MEL-5.

For the compound `CCOC1OC(=O)c2cc3ccc4c(c3c(-c3ccc5c(c3)OCO5)c21)OCO4` (stereo not given), the GI50 in the assay on HT-29 is 4.76 µM (inactive); in the assay with DU-145, 70.5 µM (inactive); with LOX IMVI, 3.79 µM (inactive); in the assay on OVCAR-5, 14.5 µM (inactive); in the assay with SK-OV-3 it was 1.42 µM (inactive); in the assay on UACC-257, 9.79 µM (inactive). For the same compound, the GI50 was 10.9 µM (inactive) with SN12C; 4.58 µM (inactive) in the assay with KM12; 17.4 µM (inactive) in the assay on MDA-MB-231; 3.08 µM (inactive) with A549; 9.53 µM (inactive) with SK-MEL-28; 3.04 µM (inactive) with MDA-MB-435. In addition, the GI50 was 9.79 µM (inactive) with T47D; 9.33 µM (inactive) in the assay on CCRF-CEM; 1.42 µM (inactive) in the assay on SF-539; 5.68 µM (inactive) with U-251; 9.4 µM (inactive) in the assay on A498; 9.06 µM (inactive) with 786-0. Also, the GI50 in the assay on RPMI-8226 was 4.12 µM (inactive); in the assay with SK-MEL-5, 2.72 µM (inactive).

For the compound `CC(=O)c1ccc2c3c1O[C@H]1c4[nH]c5ccccc5c4C[C@@]4(O)[C@@H](C2)N(CC2CC2)CC[C@]314`, the GI50 with HT-29 is 4.13 µM (inactive); in the assay with DU-145, 20.6 µM (inactive); in the assay with LOX IMVI, 16.9 µM (inactive); with OVCAR-5, 13.2 µM (inactive); with SK-OV-3, 20.1 µM (inactive); in the assay on UACC-257, 16.8 µM (inactive). The GI50 in the assay on SN12C was 19.1 µM (inactive); in the assay with KM12, 21.3 µM (inactive); in the assay on MDA-MB-231 it was 12.8 µM (inactive); in the assay with A549 it was 1.15 µM (inactive); with SK-MEL-28, 8.17 µM (inactive); in the assay with MDA-MB-435 it was 18.6 µM (inactive). The GI50 in the assay on T47D is 19.9 µM (inactive); in the assay with CCRF-CEM, 2.06 µM (inactive); with SF-539, 13.6 µM (inactive); in the assay on U-251, 12.2 µM (inactive); in the assay with A498 it was 0.333 µM (active); in the assay on 786-0, 15 µM (inactive). Moreover, the GI50 in the assay on RPMI-8226 is 18.3 µM (inactive); with SK-MEL-5, 16 µM (inactive).
